Test results published in PubChem BioAssay AID179 (DTP/NCI, 2004).
Several values for one entry are separate records, joined by “and”; a condition that tells them apart may be missing. Identical values can stand only once. Activity calls are given as the source filed them.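 How the source made its calls: active means compounds giving half or more protection of infected cells from virus-caused growth loss, again on retest; inactive means the rest.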

Test system: CEM cells HIV-1 protection, formazan growth assay
Assay: NCI AIDS Antiviral Assay
Settings: for IC50: measured here: growth of uninfected CEM cells
Procedure, shortened: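 Steps: treat uninfected and HIV-1-infected human CEM cells at five drug levels; quantify growth by soluble formazan; retest any compound reaching 50% protection; classify actives from the retest.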

Structure (SMILES)	outcome	EC50	IC50
O=C1CN(Cc2cccc(Cl)c2)CC(=O)N2Cc3ccccc3CN12	inactive	–	–
COc1ccc(C2(O)c3ccccc3C(=O)N(C)C2(O)c2ccc(OC)cc2)cc1 (configuration not stated)	–	> 200 µM	37.2 µM
OC1(C2(O)CCC2)CCC1	–	> 200 µM	> 200 µM
Cc1cc(S(=O)(=O)Nc2nc(N)nc(N3CCOCC3)n2)c(SCC(=O)O)cc1Cl	–	> 200 µM	> 200 µM
COc1ccc(NC(=O)/C(=N\NC(=O)C[n+]2ccccc2)c2c(O)c3ccc(O)cc3oc2=O)c([N+](=O)[O-])c1	–	> 437 µM	72.4 µM
O=C1O/C(=C(\Br)c2ccccc2)c2ccccc21	–	> 200 µM	3.63 µM
O=c1oc2ccccc2c(O)c1[N+](=O)[O-]	–	> 200 µM	> 200 µM
CCCCCCCCCCCCCCCCNC(=S)N/C=C(/C#N)C(=O)OC	inactive	–	–
O=S(=O)(O)c1ccc2cc(N=Nc3cc(S(=O)(=O)O)c4cccnc4c3O)ccc2c1	–	24 µM	> 100 µM
Cc1ccc(S(=O)(=O)Nn2c(O)c(C#N)c(-c3ccccc3)c(C#N)c2=O)cc1	–	> 200 µM	> 200 µM
CN1C(=O)c2ccccc2OC12C=Cc1c(ccc3ccccc13)O2 (configuration not stated)	–	> 195 µM	14.1 µM
OC1COCC2N3C(=NN12)Sc1ccccc13 (configuration not stated)	inactive	–	–
O=C1OC(C(O)CO)C(C(O)CO)OC1=O (configuration not stated)	–	> 200 µM	> 200 µM
C/C=C\C(=O)C#Cc1cnc(OC)nc1OC	–	> 2 µM	0.0912 µM
CSC1=Nc2ccccc2-c2nc3ccccc3cc2C1	inactive	–	–
COc1ccc(C(=O)C(CC2C(=O)NC(=O)NC2=O)c2ccc(OC)cc2)cc1 (configuration not stated)	–	> 34.7 µM	> 34.7 µM
NC1=NNC2(C(=O)N1)c1ccccc1-c1ccccc12	–	> 200 µM	46.8 µM
N#CC(C#N)=Cc1ccc(SCc2ccc(Cl)cc2)cc1	–	> 200 µM	135 µM
Nc1nc(N)c(-c2ccc(Cl)c(Cl)c2)c(C[P+](c2ccccc2)(c2ccccc2)c2ccccc2)n1	–	> 200 µM	1.05 µM
CSc1nc2c(c(O)c(C)c(=O)n2C2OC(COC(C)=O)C(OC(C)=O)C(OC(C)=O)C2OC(C)=O)c(=O)n1C (configuration not stated)	–	> 44.7 µM	> 44.7 µM
O=C1/C(=C/c2ccco2)N=C2Sc3c(nc[nH]c3=O)N12	–	> 200 µM	> 200 µM
N#C/C(N)=C(\C#N)N=CNc1ccccc1N	–	> 200 µM	> 200 µM
NC1CC2NC3CCCCC3NC2CC1N (configuration not stated)	–	> 200 µM	27.5 µM

Structure (SMILES)	outcome	EC50	IC50
Cc1ccc2c(c1)CC1(Cc3cc(C)ccc3C1=O)C2=O	–	> 200 µM	> 200 µM
Oc1ccc(Cl)cc1-c1[nH]c(=S)nc(-c2ccccc2)c1Cl	–	> 200 µM	> 200 µM
OCc1ccc2[n+](c1)CCc1c-2[nH]c2ccccc12	–	> 77.6 µM	> 77.6 µM
Nc1c2ccccc2nc2c1ccc1ncccc12	–	> 200 µM	6.46 µM
c1ccc([P+](Cc2nc3ccccc3[nH]2)(c2ccccc2)c2ccccc2)cc1	–	> 200 µM	38.9 µM and 46.8 µM
Nc1ncnc2c1nnn2C1CCC(CP(=O)(O)O)C1 (configuration not stated)	–	> 200 µM	> 200 µM
CCCOC(=O)C1OC12CCCCC2 (configuration not stated)	–	> 200 µM	> 200 µM
O=c1[nH]c2ccccc2c(O)c1N=Nc1cccc(C(F)(F)F)c1	–	> 200 µM	> 200 µM
CC(C)CC1C(=O)NCCC(NC(=O)C(N)Cc2ccc(O)cc2)C(=O)NC(Cc2ccccc2)C(=O)NC(Cc2ccccc2)NC1=O (configuration not stated)	–	> 100 µM	> 100 µM
c1ccc2c(c1)CCN2CCN1CCc2ccccc21	–	> 200 µM	145 µM
CC12CCC([C@H](C(O)C3CCCCC3)C1=O)C2(C)C (some centres not stated)	–	> 200 µM	52.5 µM
C[C@]12CNC(=O)C=C1CC[C@@H]1C2CC[C@]2(C)NC(=O)CCC12 (some centres not stated)	inactive	–	–
O=C(O)c1ccc(-c2c3ccc(=O)cc-3oc3cc(O)ccc23)c(C(=O)O)c1	–	60.3 µM	162 µM
N#Cc1cccc2c1Nc1ccccc1S2	–	> 23.4 µM	> 23.4 µM
CC1(C)CCCC2CC2CCC(C)(C)C1=O (configuration not stated)	–	> 200 µM	105 µM
COc1cc2oc(=O)ccc2cc1CC=C(C)C	–	> 40.7 µM	> 40.7 µM
Cc1c(O)c2ccccc2oc1=O	–	> 200 µM	> 200 µM
O=C1C=C(Nc2ccccc2C(=O)c2ccccc2)c2ccccc2C1=O	–	> 2.95 µM	> 2.95 µM
CC(C)CCCC(C)C1CCC2[C@@H]3CCC4C[C@@H](CCC=C(c5cc(Br)c(O)c(C(=O)O)c5)c5cc(Br)c(O)c(C(=O)O)c5)CC[C@]4(C)C3CC[C@]12C (some centres not stated)	–	20.9 µM	282 µM
O=[N+]([O-])C(Cl)C(Cl)c1ccc(Cl)cc1 (configuration not stated)	–	> 200 µM	7.41 µM
C#CCC(C#C)N(CCc1ccsc1)Cc1ccccc1 (configuration not stated)	–	> 200 µM	67.6 µM
Cc1cccc(C)c1NC(=O)/C(=N/NC(N)=S)C(C)C(=O)c1ccc(Cl)cc1 (configuration not stated)	–	> 44.7 µM	> 44.7 µM
O=C1c2c(F)c(F)c(F)c(F)c2SC2=NCCN12	–	> 20 µM	2 µM
